ChEMBL document CHEMBL4507280 (2021)

Key:
[1] = system: Epidermal growth factor receptor (Homo sapiens), P00533 [L861Q]; conditions: Compound concentration 1000.0 nM
[2] = biological target: Serine/threonine-protein kinase LATS1 (Homo sapiens) (UniProt O95835); conditions: Compound concentration 1000.0 nM
[3] = biological target: Cyclin-dependent kinase 11B (Homo sapiens) (UniProt P21127); conditions: Compound concentration 1000.0 nM
[4] = system: Phosphatidylinositol 4,5-bisphosphate 3-kinase catalytic subunit alpha isoform (Homo sapiens), P42336 [H1047L]; conditions: Compound concentration 1000.0 nM
[5] = biological target: Dual specificity tyrosine-phosphorylation-regulated kinase 1B (Homo sapiens) (UniProt Q9Y463); conditions: Compound concentration 1000.0 nM
[6] = biological target: Ribosomal protein S6 kinase alpha-3 (Homo sapiens) (UniProt P51812); conditions: Compound concentration 1000.0 nM
[7] = system: Proto-oncogene tyrosine-protein kinase receptor Ret (Homo sapiens), P07949 [V804L]; conditions: Compound concentration 1000.0 nM
[8] = biological target: Serine/threonine-protein kinase WNK4 (Homo sapiens) (UniProt Q96J92); conditions: Compound concentration 1000.0 nM
[9] = biological target: Serine/threonine-protein kinase/endoribonuclease IRE1 (Homo sapiens) (UniProt O75460); conditions: Compound concentration 1000.0 nM
[10] = biological target: Serine/threonine-protein kinase 10 (Homo sapiens) (UniProt O94804); conditions: Compound concentration 1000.0 nM
[11] = biological target: Wee1-like protein kinase (Homo sapiens) (UniProt P30291); conditions: Compound concentration 1000.0 nM
[12] = biological target: Phosphatidylinositol 5-phosphate 4-kinase type-2 gamma (Homo sapiens) (UniProt Q8TBX8); conditions: Compound concentration 1000.0 nM
[13] = biological target: Mitogen-activated protein kinase kinase kinase kinase 3 (Homo sapiens) (UniProt Q8IVH8); conditions: Compound concentration 1000.0 nM
[14] = biological target: Tyrosine-protein kinase JAK2 (Homo sapiens) (UniProt O60674); conditions: Compound concentration 1000.0 nM
[15] = biological target: Serine/threonine-protein kinase 16 (Homo sapiens) (UniProt O75716); conditions: Compound concentration 1000.0 nM
[16] = biological target: Tyrosine-protein kinase Fyn (Homo sapiens) (UniProt P06241); conditions: Compound concentration 1000.0 nM
[17] = biological target: Serine/threonine-protein kinase 17A (Homo sapiens) (UniProt Q9UEE5); conditions: Compound concentration 1000.0 nM
[18] = biological target: Rho-associated protein kinase 1 (Homo sapiens) (UniProt Q13464); conditions: Compound concentration 1000.0 nM
[19] = biological target: Serine/threonine-protein kinase haspin (Homo sapiens) (UniProt Q8TF76); conditions: Compound concentration 1000.0 nM
[20] = biological target: 5-hydroxytryptamine receptor 2A (Homo sapiens) (UniProt P28223); conditions: Compound concentration 10.0 uM
[21] = biological target: Histamine H1 receptor (Homo sapiens) (UniProt P35367); conditions: Compound concentration 10.0 uM
[22] = biological target: Calcium/calmodulin-dependent protein kinase type 1B (Homo sapiens) (UniProt Q6P2M8); conditions: Compound concentration 1000.0 nM
[23] = biological target: Cyclin-dependent kinase-like 5 (Homo sapiens) (UniProt O76039); conditions: Compound concentration 1000.0 nM
[24] = biological target: Proto-oncogene tyrosine-protein kinase receptor Ret (Homo sapiens) (UniProt P07949); conditions: Compound concentration 1000.0 nM
[25] = biological target: Receptor-interacting serine/threonine-protein kinase 2 (Homo sapiens) (UniProt O43353); conditions: Compound concentration 1000.0 nM
[26] = biological target: Mitogen-activated protein kinase kinase kinase 1 (Homo sapiens) (UniProt Q13233); conditions: Compound concentration 1000.0 nM
[27] = biological target: Serine/threonine-protein kinase RIO2 (Homo sapiens) (UniProt Q9BVS4); conditions: Compound concentration 1000.0 nM
[28] = system: Mast/stem cell growth factor receptor Kit (Homo sapiens), P10721 [V559D,T670I]; conditions: Compound concentration 1000.0 nM
[29] = biological target: Serine/threonine-protein kinase TNNI3K (Homo sapiens) (UniProt Q59H18); conditions: Compound concentration 1000.0 nM
[30] = biological target: 5-hydroxytryptamine receptor 1A (Homo sapiens) (UniProt P08908); conditions: Compound concentration 10.0 uM
[31] = biological target: Tyrosine-protein kinase ABL2 (Homo sapiens) (UniProt P42684); conditions: Compound concentration 1000.0 nM
[32] = system: Epidermal growth factor receptor (Homo sapiens), P00533 [G719S]; conditions: Compound concentration 1000.0 nM
[33] = biological target: BDNF/NT-3 growth factors receptor (Homo sapiens) (UniProt Q16620); conditions: Compound concentration 1000.0 nM
[34] = biological target: Ephrin type-B receptor 1 (Homo sapiens) (UniProt P54762); conditions: Compound concentration 1000.0 nM
[35] = system: Phosphatidylinositol 4,5-bisphosphate 3-kinase catalytic subunit alpha isoform (Homo sapiens), P42336 [H1047Y]; conditions: Compound concentration 1000.0 nM
[36] = biological target: Cyclin-dependent kinase 19 (Homo sapiens) (UniProt Q9BWU1); conditions: Compound concentration 1000.0 nM
[37] = biological target: Activin receptor type-2B (Homo sapiens) (UniProt Q13705); conditions: Compound concentration 1000.0 nM
[38] = biological target: Serine/threonine-protein kinase PAK 5 (Homo sapiens) (UniProt Q9P286); conditions: Compound concentration 1000.0 nM
[39] = biological target: Insulin receptor-related protein (Homo sapiens) (UniProt P14616); conditions: Compound concentration 1000.0 nM
[40] = biological target: Activated CDC42 kinase 1 (Homo sapiens) (UniProt Q07912); conditions: Compound concentration 1000.0 nM
[41] = system: Tyrosine-protein kinase ABL1 (Homo sapiens), P00519 [T315I]; conditions: Compound concentration 1000.0 nM
[42] = biological target: Mitogen-activated protein kinase kinase kinase 4 (Homo sapiens) (UniProt Q9Y6R4); conditions: Compound concentration 1000.0 nM
[43] = biological target: Vascular endothelial growth factor receptor 3 (Homo sapiens) (UniProt P35916); conditions: Compound concentration 1000.0 nM
[44] = biological target: Muscarinic acetylcholine receptor M5 (Homo sapiens) (UniProt P08912); conditions: Compound concentration 10.0 uM
[45] = biological target: Insulin-like growth factor 1 receptor (Homo sapiens) (UniProt P08069); conditions: Compound concentration 1000.0 nM

Chain of Mitogen-activated protein kinase kinase kinase kinase 3 (Homo sapiens) (Q8IVH8 whole entry): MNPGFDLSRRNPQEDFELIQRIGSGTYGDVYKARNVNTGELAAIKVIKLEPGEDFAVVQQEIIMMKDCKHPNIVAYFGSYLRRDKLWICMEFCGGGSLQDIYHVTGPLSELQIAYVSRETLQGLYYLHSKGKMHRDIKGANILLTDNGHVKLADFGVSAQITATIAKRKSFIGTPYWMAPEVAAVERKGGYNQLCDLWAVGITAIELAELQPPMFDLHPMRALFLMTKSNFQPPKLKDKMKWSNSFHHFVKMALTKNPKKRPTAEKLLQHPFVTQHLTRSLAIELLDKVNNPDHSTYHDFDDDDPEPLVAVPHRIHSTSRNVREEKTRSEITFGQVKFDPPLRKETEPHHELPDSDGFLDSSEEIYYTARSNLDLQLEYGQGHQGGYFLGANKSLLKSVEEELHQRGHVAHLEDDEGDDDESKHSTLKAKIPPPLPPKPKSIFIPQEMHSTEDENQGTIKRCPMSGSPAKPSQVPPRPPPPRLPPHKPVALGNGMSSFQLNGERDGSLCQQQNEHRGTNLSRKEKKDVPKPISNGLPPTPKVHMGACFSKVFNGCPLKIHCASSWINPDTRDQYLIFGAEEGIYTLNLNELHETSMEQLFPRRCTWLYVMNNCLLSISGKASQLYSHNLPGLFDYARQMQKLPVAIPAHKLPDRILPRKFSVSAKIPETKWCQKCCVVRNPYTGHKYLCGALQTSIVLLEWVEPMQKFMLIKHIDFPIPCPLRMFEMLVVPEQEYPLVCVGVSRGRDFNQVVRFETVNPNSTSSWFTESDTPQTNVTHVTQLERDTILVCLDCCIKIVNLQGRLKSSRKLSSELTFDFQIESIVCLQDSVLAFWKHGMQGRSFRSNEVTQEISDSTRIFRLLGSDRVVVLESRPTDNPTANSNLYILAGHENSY
Chain of Rho-associated protein kinase 1 (Homo sapiens) (Q13464 2-1354 limits assumed): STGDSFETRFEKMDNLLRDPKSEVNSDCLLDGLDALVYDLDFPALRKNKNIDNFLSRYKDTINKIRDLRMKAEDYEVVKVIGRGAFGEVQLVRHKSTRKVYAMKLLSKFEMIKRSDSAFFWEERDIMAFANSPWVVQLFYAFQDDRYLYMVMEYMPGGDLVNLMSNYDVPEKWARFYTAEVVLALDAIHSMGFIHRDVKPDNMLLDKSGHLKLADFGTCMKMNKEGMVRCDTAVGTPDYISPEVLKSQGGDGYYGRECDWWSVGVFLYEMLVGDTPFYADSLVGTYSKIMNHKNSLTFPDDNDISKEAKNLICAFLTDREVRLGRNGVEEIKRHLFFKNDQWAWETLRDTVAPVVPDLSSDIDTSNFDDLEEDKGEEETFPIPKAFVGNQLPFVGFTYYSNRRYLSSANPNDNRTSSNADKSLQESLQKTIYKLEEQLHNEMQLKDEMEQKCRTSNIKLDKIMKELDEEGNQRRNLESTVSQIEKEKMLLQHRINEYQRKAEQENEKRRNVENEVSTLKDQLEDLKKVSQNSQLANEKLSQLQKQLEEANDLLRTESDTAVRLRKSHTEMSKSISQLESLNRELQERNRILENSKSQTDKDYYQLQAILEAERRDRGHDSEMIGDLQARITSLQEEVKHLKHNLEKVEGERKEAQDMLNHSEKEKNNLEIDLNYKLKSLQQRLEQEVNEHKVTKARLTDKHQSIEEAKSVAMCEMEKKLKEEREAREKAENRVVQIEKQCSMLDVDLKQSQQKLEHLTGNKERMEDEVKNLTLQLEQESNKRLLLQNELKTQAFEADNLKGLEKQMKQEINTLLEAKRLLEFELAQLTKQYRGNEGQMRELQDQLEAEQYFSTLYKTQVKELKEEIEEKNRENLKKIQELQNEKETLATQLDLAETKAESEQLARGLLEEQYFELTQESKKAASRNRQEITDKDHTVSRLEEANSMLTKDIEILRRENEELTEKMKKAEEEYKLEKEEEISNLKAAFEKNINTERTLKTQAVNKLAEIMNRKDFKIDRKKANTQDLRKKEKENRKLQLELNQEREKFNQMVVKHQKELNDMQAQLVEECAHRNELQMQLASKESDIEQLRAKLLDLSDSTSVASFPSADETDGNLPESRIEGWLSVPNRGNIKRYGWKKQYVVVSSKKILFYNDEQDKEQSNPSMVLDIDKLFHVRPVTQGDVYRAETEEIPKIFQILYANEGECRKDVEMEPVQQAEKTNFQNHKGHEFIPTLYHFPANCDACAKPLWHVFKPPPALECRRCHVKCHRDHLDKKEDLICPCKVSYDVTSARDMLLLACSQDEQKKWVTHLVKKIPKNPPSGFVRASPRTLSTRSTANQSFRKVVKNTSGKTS
Chain of Receptor-interacting serine/threonine-protein kinase 2 (Homo sapiens) (O43353 whole entry): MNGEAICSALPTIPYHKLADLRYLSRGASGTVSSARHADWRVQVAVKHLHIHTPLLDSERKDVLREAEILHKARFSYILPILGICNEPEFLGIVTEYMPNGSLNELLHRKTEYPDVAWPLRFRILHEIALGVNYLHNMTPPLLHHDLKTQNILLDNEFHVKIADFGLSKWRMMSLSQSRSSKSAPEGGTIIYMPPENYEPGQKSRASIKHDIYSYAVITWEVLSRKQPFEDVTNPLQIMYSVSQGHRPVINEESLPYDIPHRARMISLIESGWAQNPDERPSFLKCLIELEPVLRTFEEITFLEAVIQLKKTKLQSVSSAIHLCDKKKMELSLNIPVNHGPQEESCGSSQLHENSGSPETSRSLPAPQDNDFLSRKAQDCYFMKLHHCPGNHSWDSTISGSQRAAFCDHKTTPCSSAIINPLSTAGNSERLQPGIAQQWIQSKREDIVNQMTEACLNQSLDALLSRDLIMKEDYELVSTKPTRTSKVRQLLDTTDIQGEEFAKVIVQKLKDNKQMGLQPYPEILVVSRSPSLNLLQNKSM
Chain of Phosphatidylinositol 5-phosphate 4-kinase type-2 gamma (Homo sapiens) (Q8TBX8 whole entry): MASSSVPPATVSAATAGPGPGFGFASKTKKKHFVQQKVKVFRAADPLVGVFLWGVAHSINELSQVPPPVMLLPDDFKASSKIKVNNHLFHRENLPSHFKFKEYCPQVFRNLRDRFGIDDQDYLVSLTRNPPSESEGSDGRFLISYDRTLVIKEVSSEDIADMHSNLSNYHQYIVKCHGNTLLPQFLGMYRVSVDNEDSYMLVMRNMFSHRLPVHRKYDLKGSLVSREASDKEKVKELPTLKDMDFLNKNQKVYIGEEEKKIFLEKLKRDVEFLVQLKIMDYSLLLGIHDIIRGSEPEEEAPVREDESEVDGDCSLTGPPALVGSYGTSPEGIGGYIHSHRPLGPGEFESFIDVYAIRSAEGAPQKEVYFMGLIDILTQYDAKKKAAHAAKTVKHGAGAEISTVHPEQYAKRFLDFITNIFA
Chain of 5-hydroxytryptamine receptor 2A (Homo sapiens) (P28223 whole entry): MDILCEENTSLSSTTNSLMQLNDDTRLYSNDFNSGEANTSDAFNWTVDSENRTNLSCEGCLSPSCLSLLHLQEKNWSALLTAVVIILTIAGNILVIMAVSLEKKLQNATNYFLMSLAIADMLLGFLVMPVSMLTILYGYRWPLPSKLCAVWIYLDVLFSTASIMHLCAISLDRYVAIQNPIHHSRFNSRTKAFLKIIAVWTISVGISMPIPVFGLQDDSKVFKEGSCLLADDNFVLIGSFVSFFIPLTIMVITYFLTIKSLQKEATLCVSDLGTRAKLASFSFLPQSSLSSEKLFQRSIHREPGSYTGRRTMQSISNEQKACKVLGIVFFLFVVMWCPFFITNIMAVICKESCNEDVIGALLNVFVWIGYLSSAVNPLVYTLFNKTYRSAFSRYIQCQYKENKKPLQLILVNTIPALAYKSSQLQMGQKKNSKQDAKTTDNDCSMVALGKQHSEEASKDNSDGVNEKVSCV
Chain of Phosphatidylinositol 4,5-bisphosphate 3-kinase catalytic subunit alpha isoform (Homo sapiens), P42336 [H1047L] (P42336 whole entry H1047L, canonical isoform): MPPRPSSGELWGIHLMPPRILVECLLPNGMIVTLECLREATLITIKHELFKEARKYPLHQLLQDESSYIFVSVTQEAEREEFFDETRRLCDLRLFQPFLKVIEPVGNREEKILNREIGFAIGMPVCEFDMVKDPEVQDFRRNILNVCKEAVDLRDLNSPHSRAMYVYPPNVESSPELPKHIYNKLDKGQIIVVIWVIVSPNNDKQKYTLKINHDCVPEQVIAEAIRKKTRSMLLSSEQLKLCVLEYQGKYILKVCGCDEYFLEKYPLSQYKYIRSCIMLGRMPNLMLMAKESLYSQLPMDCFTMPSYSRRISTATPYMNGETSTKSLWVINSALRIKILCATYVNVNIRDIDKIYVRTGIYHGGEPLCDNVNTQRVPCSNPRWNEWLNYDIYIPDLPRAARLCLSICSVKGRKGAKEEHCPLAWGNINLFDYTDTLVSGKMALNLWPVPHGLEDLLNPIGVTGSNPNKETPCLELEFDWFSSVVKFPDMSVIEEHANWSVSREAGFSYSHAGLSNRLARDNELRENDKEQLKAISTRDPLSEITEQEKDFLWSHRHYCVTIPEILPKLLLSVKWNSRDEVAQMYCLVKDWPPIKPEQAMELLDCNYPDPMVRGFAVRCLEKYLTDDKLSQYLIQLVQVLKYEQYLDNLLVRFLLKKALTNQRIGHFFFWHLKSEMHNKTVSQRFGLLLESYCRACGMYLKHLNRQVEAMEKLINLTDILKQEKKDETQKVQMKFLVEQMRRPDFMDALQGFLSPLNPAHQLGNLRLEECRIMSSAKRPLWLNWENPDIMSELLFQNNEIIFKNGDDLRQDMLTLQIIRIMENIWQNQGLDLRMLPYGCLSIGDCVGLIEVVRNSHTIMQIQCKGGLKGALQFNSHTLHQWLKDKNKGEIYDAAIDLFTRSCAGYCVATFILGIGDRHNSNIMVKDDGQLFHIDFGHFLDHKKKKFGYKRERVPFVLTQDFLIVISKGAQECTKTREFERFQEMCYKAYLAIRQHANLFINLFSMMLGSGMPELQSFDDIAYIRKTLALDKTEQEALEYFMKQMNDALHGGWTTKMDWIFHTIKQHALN
Chain of Serine/threonine-protein kinase 16 (Homo sapiens) (O75716 whole entry): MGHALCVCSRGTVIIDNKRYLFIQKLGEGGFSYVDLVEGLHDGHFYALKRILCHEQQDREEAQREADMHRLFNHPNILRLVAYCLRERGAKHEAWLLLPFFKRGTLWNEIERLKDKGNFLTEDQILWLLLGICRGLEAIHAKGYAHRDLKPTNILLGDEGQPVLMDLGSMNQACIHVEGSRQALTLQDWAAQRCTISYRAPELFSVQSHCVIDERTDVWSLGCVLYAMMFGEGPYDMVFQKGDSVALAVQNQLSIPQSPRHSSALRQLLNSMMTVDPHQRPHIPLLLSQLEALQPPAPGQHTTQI

Compound: CCC(=O)N[C@@H]1CC[C@H](C(=O)N(C)c2ccc(-c3nc4ccccc4o3)cc2)C1 [BI 99990]
- residual activity [1]: 95%
- residual activity [2]: 58%
- residual activity [3]: 100%
- residual activity [4]: 97%
- residual activity [5]: 36%
- residual activity [6]: 91%
- residual activity [7]: 100%
- residual activity [8]: 100%
- residual activity [9]: 100%
- residual activity [10]: 89%
- residual activity [11]: 99%
- residual activity [12]: 100%
- residual activity [13]: 100%
- residual activity [14]: 100%
- residual activity [15]: 100%
- residual activity [16]: 85%
- residual activity [17]: 100%
- residual activity [18]: 100%
- residual activity [19]: 100%
- inhibition [20]: -9.08%
- inhibition [21]: 18.6%
- residual activity [22]: 100%
- residual activity [23]: 100%
- residual activity [24]: 93%
- residual activity [25]: 85%
- residual activity [26]: 74%
- residual activity [27]: 100%
- residual activity [28]: 93%
- residual activity [29]: 99%
- inhibition [30]: 8.28%
- residual activity [31]: 100%
- residual activity [32]: 96%
- residual activity [33]: 100%
- residual activity [34]: 100%
- residual activity [35]: 100%
- residual activity [36]: 82%
- residual activity [37]: 96%
- residual activity [38]: 100%
- residual activity [39]: 100%
- residual activity [40]: 100%
- residual activity [41]: 79%
- residual activity [42]: 83%
- residual activity [43]: 100%
- inhibition [44]: 15.4%
- residual activity [45]: 100%

Compound: CCC(=O)N[C@H]1CC[C@@H](C(=O)N(C)c2ccc(-c3nc4ccccc4o3)cc2)C1 [BI 99179]
- residual activity [1]: 100%
- residual activity [2]: 48%
- residual activity [3]: 99%
- residual activity [4]: 78%
- residual activity [5]: 100%
- residual activity [6]: 87%
- residual activity [7]: 98%
- residual activity [8]: 100%
- residual activity [9]: 91%
- residual activity [10]: 100%
- residual activity [11]: 100%
- residual activity [12]: 100%
- residual activity [13]: 85%
- residual activity [14]: 70%
- residual activity [15]: 100%
- residual activity [16]: 100%
- residual activity [17]: 91%
- residual activity [18]: 100%
- residual activity [19]: 100%
- inhibition [20]: 2.34%
- inhibition [21]: 20.9%
- residual activity [22]: 92%
- residual activity [23]: 82%
- residual activity [24]: 92%
- residual activity [25]: 100%
- residual activity [26]: 73%
- residual activity [27]: 84%
- residual activity [28]: 100%
- residual activity [29]: 100%
- inhibition [30]: 19.5%
- residual activity [31]: 100%
- residual activity [32]: 100%
- residual activity [33]: 100%
- residual activity [34]: 100%
- residual activity [35]: 97%
- residual activity [36]: 100%
- residual activity [37]: 100%
- residual activity [38]: 100%
- residual activity [39]: 100%
- residual activity [40]: 84%
- residual activity [41]: 86%
- residual activity [42]: 100%
- residual activity [43]: 97%
- inhibition [44]: -0.421%
- residual activity [45]: 100%
